Patent publication US7091199B1, “Thienoisoxazole phenoxy unsubstituted ethyl and propyl derivatives useful as d4 antagonists” (Aventis Pharmaceuticals Inc., priority 1999, dated 2006)
Each block holds one molecule with its values, some of them ahead of it.

Tests used:
[1] = molecular target: human D4 receptor with seven repeat units (D4.7 variant); conditions: read-out: EC50 of dopamine; cited from earlier work
D4.2 variant = conditions: read-out: EC50 of dopamine; cited from earlier work
[2] = system: CD-1 or C57 male mice (MK-801 induced stereotypy); experiment: MK-801 Stereotypy in Mice; format: in vivo
Experimental: Mk-801 dose-dependently induces characteristic stereotypy marked by locomotion and falling behavior. This MK-801 induced behavior can be antagonized by novel neuroleptic agents. This assay can also assess time course effects following drug administration.
CD-1 or C57 male mice are individually placed in activity boxes (8 mice/drug) and allowed to acclimate for 60 minutes. The mice are then administered test compounds either i.p., s.c., or p.o., at 15, 30, or 60 minutes prior to MK-801 (0.2 mg/kg) administration. Mice are observed for the presence of locomotion and falling behaviors 15 minutes following MK-801. For the duration of action studies the test compounds are administered i.p., s.c., or p.o., at 30, 60, 120, 180, and 240 minutes prior to MK-801 administration.

[3] = molecular target: T1, human D4 receptor (D4.2 sub-type) (Homo sapiens, UniProt P21917, DEL271-302); experiment: D4 receptor binding assay (3H-spiperone displacement); conditions: 3H-spiperone 0.25 nM, HEK cell membranes, human D4.2; read-out: D4 RBA Ki
T1 sequence (P21917 with tags, fused parts or gaps DEL271-302): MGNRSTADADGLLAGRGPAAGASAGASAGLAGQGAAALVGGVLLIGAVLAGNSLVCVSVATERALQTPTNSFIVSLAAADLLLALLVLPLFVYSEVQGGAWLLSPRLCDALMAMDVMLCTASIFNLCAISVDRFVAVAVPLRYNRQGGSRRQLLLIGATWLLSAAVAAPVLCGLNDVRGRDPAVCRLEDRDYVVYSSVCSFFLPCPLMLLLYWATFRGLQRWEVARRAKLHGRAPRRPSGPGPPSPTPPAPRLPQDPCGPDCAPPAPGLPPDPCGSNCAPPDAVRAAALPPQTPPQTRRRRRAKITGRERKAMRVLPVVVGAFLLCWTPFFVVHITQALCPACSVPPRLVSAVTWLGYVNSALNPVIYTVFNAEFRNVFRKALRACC
Experimental: D4 receptor-binding affinities of the compounds were evaluated according to their ability to reduce binding of ^3H-spiperone as compared to the reference compound clozapine. The potency of the test compound to reduce ^3H-spiperone binding directly correlated to its binding affinity for the receptor.
[…] (human embryonic kidney) cells stably transfected with human D4 receptor (D4.2 sub-type) were grown in NUNC cell factories for 5 days (75% confluency) without a media change and removed with versene (approximately 19 mg of cells per cell factory tray). The cells were then centrifuged in a Sorval centrifuge for 10 min, 5000 rpm (GS3 rotor) and the pellets quickly frozen in liquid nitrogen and stored at −80° C. until used in binding assay. When used in the assay, cells were thawed on ice for 20 min and then 10 mL of incubation buffer (50 mM Tris, 1 mM EDTA, 4 mM MgCl2, 5 mM KCl, 1.5 mM CaCl2, 120 mM NaCl, pH 7.4) was added. The cells were then vortexed to resuspend pellet and homogenized with a Kinematica, CH-6010 Kriens-LU, homogenizer for 15 seconds at setting 7. Concentration of receptor protein was determined using the Pierce BCA assay.
The incubation was started by the addition of 100 μl (50 μg protein) membrane homogenate to a solution of 300 μl incubation buffer and 100 μl (0.25 nM final conc.) ^3H-spiperone (90 Ci/mmol, Amersham, diluted in borosilicate glass vial) in 96-well polypropylene plates (1 mL per well). The plates were vortexed and incubated at room temperature for 90 minutes. The binding reaction was stopped by filtering using a Packard Harvester. The samples were filtered under vacuum over glass fibre filter plates (Whatman GF/B) presoaked for 2 hours in 0.3% polyethylenimine (PEI) in 50 mM Tris buffer (pH 7.4). The filters were then washed 6 times with 7 mL ice cold 50 mM Tris buffer (pH 7.4). The filter plates were dried overnight and 35 μl of Microscint-O (Packard) was added. The plates were sealed and counted in the Packard Top Count (3 minutes per well).
The incubation was started by the addition of 100 μl (50 μg protein) membrane homogenate to a solution of 200 μl incubation buffer, 100 μl ^3H-spiperone (90 Ci/mmol, Amersham, diluted in borosilicate glass vial to 0.25 nM final conc.) and 100 μl (30 μM final conc.) of fresh dopamine (Research Biochemicals Inc., light protected and dissolved in incubation buffer) in 96-well polypropylene plates (1 mL per well). The plates were vortexed and incubated at room temperature for 90 minutes at which time the binding reaction was stopped by filtering. The filters were washed and counted using the same procedure as in the total binding assay described above to give the non-specific binding value (NSB).
The incubation was started by the addition, in 96-well polypropylene plates (1 mL per well), of 100 μl (50 μg protein) membrane homogenate to a solution of 200 μl incubation buffer, 100 μl (0.25 nM final conc.) ^3H-spiperone (90 Ci/mmol, Amersham, diluted in borosilicate glass vial) and 100 μl of test compound that was prepared from 1 mM stock dissolved in DMSO and stored at −20° C. in polypropylene cryogenic storage vials until dilution in incubation buffer in 96-well polypropylene plates. The plates were vortexed and incubated at room temperature for 90 minutes at which time the binding reaction was stopped by filtering. The filters were washed and counted using the same procedure as in the total binding assay described above to give the displacement binding value (BD).
The test compounds were initially assayed at 1 and 0.1 μM and then at a range of concentrations chosen such that the middle dose would cause about 50% inhibition of ^3H-spiperone binding. Specific binding in the absence of test compound (B0) was the difference of total binding (BT) minus non-specific binding (NSB) and similarly specific binding (in the presence of test compound) (B) was the difference of displacement binding (BD) minus non-specific binding (NSB). […]

Structure (SMILES): NCCc1ccc(O)c(O)c1 [dopamine]
- EC50 [1]: 40 nM
- EC50 (D4.2 variant): 15 nM

- Ki [3]: 10.5 nM
Structure (SMILES): Fc1cccc(CNCCOc2cccc(-c3noc4ccsc34)c2)c1.O=C(O)/C=C\C(=O)O [Compound 32, (3-fluoro-benzyl)-[2-(3-thieno[2,3-d]isoxazol-3-yl-phenoxy)-ethyl]-amine maleate]
- Antag. of MK 801 Stereotypy % Inhib. @ 20 mg/kg ([2]; PO, 20 mg/kg): 62.5%

- Ki [3]: 17 nM
Structure (SMILES): Fc1ccc(CNCCCOc2cccc(-c3noc4ccsc34)c2)cc1 [Compound 3, (4-fluoro-benzyl)-[3-(3-thieno[2,3-d]isoxazol-3-yl-phenoxy)-propyl]-amine]
- inhibition in vivo at 20 mg/kg ([2]; Mus musculus, po, 20 mg/kg, read-out: Antag. of MK 801 Stereotypy % Inhib. @ 20 mg/kg): 37.5%

- melting point: 195 to 197 °C
- Ki [3]: 12 nM
Structure (SMILES): Cl.c1ccc(CNCCCOc2cccc(-c3noc4ccsc34)c2)cc1 [Compound 1, benzyl-[3-(3-theino[2,3-d]isoxazol-3-yl-phenoxy)-propyl]-amine hydrochloride]
- ED50 ([2]; Mus musculus, PO, MK-801 stereotypy, read-out: In Vivo ED50): 14.6 mg/kg
